For the experiment, the system named is acetic acid inducing stomach ulcer model. Kind of experiment: acetic acid inducing stomach ulcer model. Type of experiment: in vivo, male white rats. The note with it: for gastric lesion area: oral 30 mg/kg once a day for 10 days after operation; for lesion inhibition rate: oral 30 mg/kg once a day for 10 days, vs control group. From the text:
Efficacy of extract from bark of Liriodendron tulipifera obtained in Preparation Example 1 has been measured according to acetic acid inducing stomach ulcer model. Only solvent has been administered into control group, while extract from the bark of Liriodendron tulipifera has been administered into experimental group. Further, ranitidine and rebamipide used for drug for treating stomach ulcer have been also administered into experimental group. The experiment has been carried out according to the method disclosed in Okabe and Pfeifferi, Did. Dis. 17, pp. 619-628, 1972. 250 g weights of male white rats have been anesthetized with ether and the stomach has been exposed. 50 μl of 20% acetic acid has been injected into the subserosa in fundus of stomach using microliter syringe. Then, the abdomen of rat has been sutured. The drug has been orally administered into the rats at 10:00 am once a day for 10 days after operation. After 4 hour from final administration, animals have been sacrificed by ether. After removing the stomach of rat, the stomach has been spread out. The lesion area has been measured using the photo from digital camera. Computer program Image J 1.38 (NIH, Bethesda, Md.) has been applied for measuring gastric lesion area (mm^2) The lesion inhibition rate and 50% effective dose (ED50) have been calculated as the same manner of HCl-EtOH model.

Structures are written as SMILES. Marks after values point to notes of the source that are not given here.

`CNC(=C[N+](=O)[O-])NCCSCc1ccc(CN(C)C)o1` [ranitidine]: the gastric lesion area was 34.8 ± 4.83* mm^2 and the lesion inhibition rate came out at 47.1%.

Take `O=C(NC(Cc1cc(=O)[nH]c2ccccc12)C(=O)O)c1ccc(Cl)cc1` (stereo not shown) [rebamipide]: the gastric lesion area stood at 40.1 ± 7.43 mm^2 and the lesion inhibition rate is given as 39.1%.
